This assay concerns TPM3-NTRK1-wt IC50 / primary target (e.g. CD74-ROS1-wt) IC50, Ba/F3 cells. In words: Cell assay TRKA selectivity (TRKA potency divided by primary target potency). Type of assay: cell-based. As to conditions: for TPM3-NTRK1-wt/CD74-ROS1-G2032R: TRKA selectivity ratio: TPM3-NTRK1-wt IC50 / CD74-ROS1-G2032R IC50, Ba/F3 cells; for TPM3-NTRK1-wt/CD74-ROS1-wt: TRKA selectivity ratio: TPM3-NTRK1-wt IC50 / CD74-ROS1-wt IC50, Ba/F3 cells; for TPM3-NTRK1-wt/EML4-ALK-L1196M-G1202R: TRKA selectivity ratio: TPM3-NTRK1-wt IC50 / EML4-ALK-L1196M-G1202R IC50, Ba/F3 cells; for TPM3-NTRK1-wt/EML4-ALK-wt: TRKA selectivity ratio: TPM3-NTRK1-wt IC50 / EML4-ALK-wt IC50, Ba/F3 cells. Summed up: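 IL-3-independent Ba/F3 lines stably expressing TPM3-TRKA or the primary fusion (e.g. CD74-ROS1 wt) were exposed to 3-fold compound dilutions for 72 h. Viability was read by CellTiter-Glo luminescence, with IC50 from four-parameter logistic fit. Selectivity is TPM3-NTRK1 IC50 divided by primary-target IC50, binned A (>30-fold) to D (<1).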

The structures appear in SMILES notation.

Take `C[C@H]1Oc2cc(cnc2N)-c2c(C#N)cnn2Cc2ccnn2-c2ccc(F)cc21` [Example 58, (19R)-22-amino-16-fluoro-19-methyl-20-oxa-4,6,11,12,23-pentaazapentacyclo[19.3.1.0^2,^6.0^8,^12.0^13,^18]pentacosa-1(24),2,4,8,10,13,15,17,21(25),22-decaene-3-carbonitrile]: the TPM3-NTRK1-wt/CD74-ROS1-G2032R result is “A (bin A for very high selectivity, ratio>30-fold)”; the TPM3-NTRK1-wt/CD74-ROS1-wt entry was “A (bin A for very high selectivity, ratio>30-fold)”; the TPM3-NTRK1-wt/EML4-ALK-L1196M-G1202R entry is on record as “B (bin B for high selectivity, ratio>10-fold)”; the TPM3-NTRK1-wt/EML4-ALK-wt entry is “A (bin A for very high selectivity, ratio>30-fold)”.
On to `CC1Oc2cc(cnc2N)-c2c(nn(C)c2C#N)Cc2cnccc2-c2ccc(F)cc21` (stereo not drawn) [Example 59, 23-amino-17-fluoro-4,20-dimethyl-21-oxa-4,5,10,24-tetraazapentacyclo[20.3.1.0^2,^6.0^8,^13.0^14,^19]hexacosa-1(25),2,5,8(13),9,11,14,16,18,22(26),23-undecaene-3-carbonitrile], for which the TPM3-NTRK1-wt/CD74-ROS1-G2032R result is reported as “C (bin C for moderate selectivity, ratio≥1)”; the TPM3-NTRK1-wt/CD74-ROS1-wt result is recorded as “A (bin A for very high selectivity, ratio>30-fold)”; the TPM3-NTRK1-wt/EML4-ALK-L1196M-G1202R entry is listed as “D (bin D for low selectivity, ratio<1)”.
For `Cc1cc2n(n1)-c1ccc(F)cc1[C@@H](C)Oc1cc(cnc1N)-c1c(C#N)ncn1C2` [Example 61, (19R)-22-amino-16-fluoro-10,19-dimethyl-20-oxa-4,6,11,12,23-pentaazapentacyclo[19.3.1.0^2,^6.0^8,^12.0^13,^18]pentacosa-1(24),2,4,8,10,13,15,17,21(25),22-decaene-3-carbonitrile], the TPM3-NTRK1-wt/CD74-ROS1-G2032R result is “A (bin A for very high selectivity, ratio>30-fold)”; the TPM3-NTRK1-wt/CD74-ROS1-wt entry is “A (bin A for very high selectivity, ratio>30-fold)”; the TPM3-NTRK1-wt/EML4-ALK-L1196M-G1202R result is given as “B (bin B for high selectivity, ratio>10-fold)”; the TPM3-NTRK1-wt/EML4-ALK-wt result is “A (bin A for very high selectivity, ratio>30-fold)”.
In the case of `C[C@H]1Oc2cc(cnc2N)-c2c(C#N)cnn2Cc2ccnn2-c2ccc(F)cc21` [Example 62, (19R)-22-amino-16-fluoro-19-methyl-20-oxa-5,6,11,12,23-pentaazapentacyclo[19.3.1.0^2,^6.0^8,^12.0^13,^18]pentacosa-1(24),2,4,8,10,13,15,17,21(25),22-decaene-3-carbonitrile], the TPM3-NTRK1-wt/CD74-ROS1-G2032R entry is “B (bin B for high selectivity, ratio>10-fold)”; the TPM3-NTRK1-wt/CD74-ROS1-wt result is listed as “A (bin A for very high selectivity, ratio>30-fold)”; the TPM3-NTRK1-wt/EML4-ALK-L1196M-G1202R entry is recorded as “C (bin C for moderate selectivity, ratio≥1)”; the TPM3-NTRK1-wt/EML4-ALK-wt result was “A (bin A for very high selectivity, ratio>30-fold)”.
As to `C[C@H]1Oc2cc(cnc2N)-c2c(C#N)ncn2Cc2cc(F)cnc2-c2ccc(F)cc21` [Example 63, (20R)-23-amino-10,17-difluoro-20-methyl-21-oxa-4,6,12,24-tetraazapentacyclo[20.3.1.0^2,^6.0^8,^13.0^14,^19]hexacosa-1(25),2,4,8,10,12,14(19),15,17,22(26),23-undecaene-3-carbonitrile], the TPM3-NTRK1-wt/CD74-ROS1-G2032R entry is on record as “A (bin A for very high selectivity, ratio>30-fold)”; the TPM3-NTRK1-wt/CD74-ROS1-wt result is reported as “A (bin A for very high selectivity, ratio>30-fold)”; the TPM3-NTRK1-wt/EML4-ALK-L1196M-G1202R result is given as “B (bin B for high selectivity, ratio>10-fold)”; the TPM3-NTRK1-wt/EML4-ALK-wt result is reported as “A (bin A for very high selectivity, ratio>30-fold)”.
Regarding `C[C@H]1Oc2cc(cnc2N)-c2c(C#N)ncn2Cc2scnc2-c2ccc(F)cc21` [Example 64, (19R)-22-amino-16-fluoro-19-methyl-20-oxa-9-thia-4,6,11,23-tetraazapentacyclo[19.3.1.0^2,^6.0^8,^12.0^13,^18]pentacosa-1(24),2,4,8(12),10,13(18),14,16,21(25),22-decaene-3-carbonitrile], the TPM3-NTRK1-wt/CD74-ROS1-G2032R result was “A (bin A for very high selectivity, ratio>30-fold)”; the TPM3-NTRK1-wt/CD74-ROS1-wt entry is “A (bin A for very high selectivity, ratio>30-fold)”; the TPM3-NTRK1-wt/EML4-ALK-L1196M-G1202R result is on record as “B (bin B for high selectivity, ratio>10-fold)”; the TPM3-NTRK1-wt/EML4-ALK-wt entry is reported as “A (bin A for very high selectivity, ratio>30-fold)”.
As to `Cc1nc2c(s1)Cn1cnc(C#N)c1-c1cnc(N)c(c1)O[C@H](C)c1cc(F)ccc1-2` [Example 65, (19R)-22-amino-16-fluoro-10,19-dimethyl-20-oxa-9-thia-4,6,11,23-tetraazapentacyclo[19.3.1.0^2,^6.0^8,^12.0^13,^18]pentacosa-1(24),2,4,8(12),10,13(18),14,16,21(25),22-decaene-3-carbonitrile], the TPM3-NTRK1-wt/CD74-ROS1-G2032R result is “A (bin A for very high selectivity, ratio>30-fold)”; the TPM3-NTRK1-wt/CD74-ROS1-wt result is on record as “A (bin A for very high selectivity, ratio>30-fold)”; the TPM3-NTRK1-wt/EML4-ALK-L1196M-G1202R entry is listed as “B (bin B for high selectivity, ratio>10-fold)”; the TPM3-NTRK1-wt/EML4-ALK-wt result is “A (bin A for very high selectivity, ratio>30-fold)”.
Regarding `Cc1nc2c(s1)Cn1ncc(C#N)c1-c1cnc(N)c(c1)O[C@H](C)c1cc(F)ccc1-2` [Example 67, (19R)-22-amino-16-fluoro-10,19-dimethyl-20-oxa-9-thia-5,6,11,23-tetraazapentacyclo[19.3.1.0^2,^6.0^8,^12.0^13,^18]pentacosa-1(24),2,4,8(12),10,13,15,17,21(25),22-decaene-3-carbonitrile], the TPM3-NTRK1-wt/CD74-ROS1-G2032R result was “A (bin A for very high selectivity, ratio>30-fold)”; the TPM3-NTRK1-wt/CD74-ROS1-wt result is “A (bin A for very high selectivity, ratio>30-fold)”; the TPM3-NTRK1-wt/EML4-ALK-L1196M-G1202R entry is recorded as “C (bin C for moderate selectivity, ratio≥1)”; the TPM3-NTRK1-wt/EML4-ALK-wt result was “A (bin A for very high selectivity, ratio>30-fold)”.
As to `Cc1nc2c(s1)Cn1ncc(C(F)F)c1-c1cnc(N)c(c1)O[C@H](C)c1cc(F)ccc1-2` [Example 68, (19R)-3-(difluoromethyl)-16-fluoro-10,19-dimethyl-20-oxa-9-thia-5,6,11,23-tetraazapentacyclo[19.3.1.0^2,^6.0^8,^12.0^13,^18]pentacosa-1(24),2,4,8(12),10,13,15,17,21(25),22-decaen-22-amine], the TPM3-NTRK1-wt/CD74-ROS1-G2032R result was “B (bin B for high selectivity, ratio>10-fold)”; the TPM3-NTRK1-wt/CD74-ROS1-wt result is reported as “A (bin A for very high selectivity, ratio>30-fold)”; the TPM3-NTRK1-wt/EML4-ALK-L1196M-G1202R entry is on record as “C (bin C for moderate selectivity, ratio≥1)”; the TPM3-NTRK1-wt/EML4-ALK-wt result is “B (bin B for high selectivity, ratio>10-fold)”.
With `CCn1ncc2c1-c1cnc(N)c(c1)OCc1cc(F)ccc1-n1nc(C)cc1C2` [Example 69, 3-ethyl-16-fluoro-10-methyl-20-oxa-3,4,11,12,23-pentaazapentacyclo[19.3.1.0^2,^6.0^8,^12.0^13,^18]pentacosa-1(24),2(6),4,8,10,13,15,17,21(25),22-decaen-22-amine], the TPM3-NTRK1-wt/CD74-ROS1-G2032R result is reported as “A (bin A for very high selectivity, ratio>30-fold)”; the TPM3-NTRK1-wt/CD74-ROS1-wt entry was “A (bin A for very high selectivity, ratio>30-fold)”; the TPM3-NTRK1-wt/EML4-ALK-L1196M-G1202R result was “B (bin B for high selectivity, ratio>10-fold)”; the TPM3-NTRK1-wt/EML4-ALK-wt result is “A (bin A for very high selectivity, ratio>30-fold)”.
For the compound `CCn1nnc2c1-c1cnc(N)c(c1)O[C@H](C)c1cc(F)ccc1-c1ncc(F)cc1C2` [Example 70, (20R)-3-ethyl-10,17-difluoro-20-methyl-21-oxa-3,4,5,12,24-pentaazapentacyclo[20.3.1.0^2,^6.0^8,^13.0^14,^19]hexacosa-1(25),2(6),4,8(13),9,11,14,16,18,22(26),23-undecaen-23-amine], the TPM3-NTRK1-wt/CD74-ROS1-G2032R entry is “A (bin A for very high selectivity, ratio>30-fold)”; the TPM3-NTRK1-wt/CD74-ROS1-wt result is listed as “A (bin A for very high selectivity, ratio>30-fold)”; the TPM3-NTRK1-wt/EML4-ALK-L1196M-G1202R entry is reported as “C (bin C for moderate selectivity, ratio≥1)”; the TPM3-NTRK1-wt/EML4-ALK-wt entry is “A (bin A for very high selectivity, ratio>30-fold)”.
For `CCn1ncc2c1-c1cnc(N)c(c1)O[C@H](C)c1cc(F)ccc1-n1nc(F)cc1C2` [Example 71, (19R)-3-ethyl-10,16-difluoro-19-methyl-20-oxa-3,4,11,12,23-pentaazapentacyclo[19.3.1.0^2,^6.0^8,^12.0^13,^18]pentacosa-1(24),2(6),4,8,10,13,15,17,21(25),22-decaen-22-amine], the TPM3-NTRK1-wt/CD74-ROS1-G2032R entry is “A (bin A for very high selectivity, ratio>30-fold)”; the TPM3-NTRK1-wt/CD74-ROS1-wt result was “B (bin B for high selectivity, ratio>10-fold)”; the TPM3-NTRK1-wt/EML4-ALK-L1196M-G1202R result was “C (bin C for moderate selectivity, ratio≥1)”; the TPM3-NTRK1-wt/EML4-ALK-wt result is on record as “B (bin B for high selectivity, ratio>10-fold)”.
For the compound `Cc1nc2c(s1)Cc1cnn(C(F)F)c1-c1cnc(N)c(c1)O[C@H](C)c1cc(F)ccc1-2` [Example 72, (19R)-3-(difluoromethyl)-16-fluoro-10,19-dimethyl-20-oxa-9-thia-3,4,11,23-tetraazapentacyclo[19.3.1.0^2,^6.0^8,^12.0^13,^18]pentacosa-1(24),2(6),4,8(12),10,13,15,17,21(25),22-decaen-22-amine], the TPM3-NTRK1-wt/CD74-ROS1-G2032R entry is on record as “A (bin A for very high selectivity, ratio>30-fold)”; the TPM3-NTRK1-wt/CD74-ROS1-wt entry was “A (bin A for very high selectivity, ratio>30-fold)”; the TPM3-NTRK1-wt/EML4-ALK-L1196M-G1202R entry was “C (bin C for moderate selectivity, ratio≥1)”; the TPM3-NTRK1-wt/EML4-ALK-wt result is reported as “A (bin A for very high selectivity, ratio>30-fold)”.
